# Assay results published in patent US20080004266A1, “Method for treating proliferative disorders associated with protooncogene products” (priority 2006, published 2008).
# Legend:
# V600E mutant B-raf = assay: Degradation of B-raf in A375 melanoma cells (Western blot); format: cell-based, human; details: 18 hours, at 0.5 mM and 0.1 mM (so in the source)
# Description: […] After 18 hours, the cells were lysed with 1× lysis buffer and a western blot was perform, and B-raf was detected with anti-B-raf antibody.
# [1] = tested on: human tumor cell line Kasumi-1; assay: Kasumi-1 (c-Kit N822K) SCID mouse xenograft model; format: in vivo, human (xenograft in SCID mouse); details: for % T/C value: SCID mice
# From the text: The human acute myelogenous leukemia cell line, Kasumi-1 (ATCC #CRL-2724), was obtained from the American Type Culture Collection (ATCC; Manassas, Va., USA). Growth of this tumor cell line is dependent upon the expression of an activated form of the c-Kit tyrosine kinase receptor carrying a N822K mutation (A. Beghini, et al., Exp. Hematol. 33:682-688, 2005). […] FBS was obtained from ATCC and all other reagents were obtained from Invitrogen Corp. (Carlsbad, Calif., USA). Cells that had been cryopreserved in liquid nitrogen were rapidly thawed at 37° C. and transferred to a tissue culture flask containing growth media and then incubated at 37° C. in a 5% CO2 incubator. To expand the cell line, cultures were passaged 1:2 to a density of 5×10 (6) cells/ml every three days by adding an equal volume of fresh growth media. When the flasks reached a density of approximately 10×10 (6) cells/ml, the above passaging process was repeated until sufficient cells had been obtained for implantation into mice.
# Seven to eight week old, female CB17/Icr-Prkdc^scid/Crl (SCID) mice were obtained from Charles River Laboratories (Wilmington, Mass., USA). […]
# Tumors were then permitted to develop in vivo until the majority reached 100-200 mm^3 in tumor volume, which typically required 4-5 weeks following implantation. […] Tumor volumes (V) were calculated by caliper measurement of the width (W), length (L) and thickness (T) of tumors using the following formula: V=0.5236×(L×W×T). Animals were randomized into treatment groups so that the median tumor volumes of each group were similar at the start of dosing. % T/C values, as a measure of efficacy, were determined as follows: • (vi) If ΔT>0: % T/C=(ΔT/ΔC)×100 • (vii) If ΔT<0: % T/C=(ΔT/T0)×100 • (viii) ΔT=Change in median tumor volume between start of dosing and the end of study. • (ix) ΔC=Change in median tumor volume between start of dosing and the end of study. • (x) T0=Median tumor volume at start of dosing. […]
smiles,measurement,setting,value
"CC(C)c1cc(-c2nnc(O)n2-c2ccc3c(ccn3C)c2)c(O)cc1O [Compound 226, 3-(2,4-di-hydroxy-5-isopropyl-phenyl)-4-(1-methyl-indol-5-yl)-5-hydroxy-[1,2,4] triazole]",degradation of V600E mutant B-raf,V600E mutant B-raf,induced degradation
same,average bodyweight gain relative to the start of the study,"[1]; 25 mg/kg i.v. 5 times per week, day 50",+0.7% (+/−2.0 SEM)
same,% T/C value,"[1]; 25 mg/kg i.v. 5 times per week, 14 doses, day 50",−15.3%
same,% T/C value,"[1]; single dose of 25 mg/kg on day 30, observed day 33 (3 days after the first dose)",−4.1%
